Measurements taken from the NIST ThermoML archive (doi:10.1016/j.jct.2008.03.008).
Numbers after ± are expanded uncertainties.

Experiment: molar enthalpy of vaporization or sublimation
Details: 298.15 K, Liquid

Work on CC(=O)c1sccc1C [2-acetyl-3-methylthiophene] yielded a molar enthalpy (Vacuum sublimation drop method) of 13.6 ± 1.15 kcal/mol.
CC(=O)c1ccc(C)s1 [2-acetyl-5-methylthiophene] showed a molar enthalpy (Flow calorimetry) of 14.8 ± 1.24 kcal/mol.
Compound CC(=O)c1cc(C)cs1 [2-acetyl-4-methylthiophene] has a molar enthalpy (Flow calorimetry) of 15.1 ± 1.24 kcal/mol.
